Consider 18 compounds from patent US20250388605A1, “HETEROBIFUNCTIONAL COMPOUNDS AND METHODS OF TREATING DISEASE” (Halda Therapeutics OpCo, Inc., priority 2022, published 2025).

Assay [1] concerns the target T1, progesterone receptor ligand binding domain (GST-tagged PR LBD) (Homo sapiens, UniProt P06401).
T1 construct: purchased Life Technologies A15905 or a15906
T1 sequence (P06401 679-913 limits assumed): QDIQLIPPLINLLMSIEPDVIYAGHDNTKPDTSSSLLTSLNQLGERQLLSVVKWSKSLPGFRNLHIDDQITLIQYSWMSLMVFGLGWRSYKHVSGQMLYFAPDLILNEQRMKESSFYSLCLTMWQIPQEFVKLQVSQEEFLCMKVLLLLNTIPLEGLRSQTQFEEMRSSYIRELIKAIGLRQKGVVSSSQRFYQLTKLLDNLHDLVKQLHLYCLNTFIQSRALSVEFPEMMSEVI
Nature of the assay: FP Assay for Binding Affinity to Progesterone Receptor (PolarScreen Progesterone Receptor Competitor Assay Kit). The note with it: fluorescence polarization, Fluormone tracer, 2 hours at room temperature. How it is done: Exemplary compounds were tested for ability to bind to the progesterone receptor ligand binding domain (LBD).
Compounds were tested using the PolarScreen™ Progesterone Receptor Competitor Assay Kit (Life Technologies Cat #A15905 or a15906), as per the manufacturer's instructions. Briefly, GST-tagged PR LBD, Fluormone tracer, and compound were mixed and incubated for 2 hours at room temperature in the dark. Following incubation, the plates were spun at 3000×g for 30 seconds, then sealed with an optical adhesive cover, and fluorescence polarization was measured using appropriate excitation and emission filters with an EnVision Plate Reader (Perkin Elmer). Compound concentration vs. mP value were plotted in Prism (GraphPad). A four-parameter non-linear regression curve fit was applied to dose-response data to determine the half-maximal inhibitory concentration (IC50) for each test compound.
In general terms: In fluorescence polarisation assays a small probe gives low polarisation when free and higher when bound to something large.

For assay [2], the system named is T-Rex 293 cell line SC cells having increased expression of progesterone receptor isoform B protein. The experiment in a line: Cellular growth inhibition assay, T-Rex 293 SC cells exposed to doxycycline (increased progesterone receptor isoform B expression), CellTiter-Glo. To be noted: T-Rex 293 SC cells with 10 ng/mL doxycycline (increased PR isoform B), 72 hours. Type of assay: cell-based. How it is done: (§1) The SC cells were seeded on poly-D-lysine coated, black clear-bottom 384-well plates at 2500/well, in 25 μL Phenol Red Free Dulbecco's Modified Eagle Medium (DMEM) supplemented with 10% w/w charcoal-dextran treated fetal bovine serum (FBS) and 1% w/w pen-strep, with or without 10 ng/mL doxycycline. Pen-Strep is a commercially available mixture of penicillin G and streptomycin, which is used in mammalian cell culture media to prevent bacterial contamination. Phenol Red Free Dulbecco's Modified Eagle Medium (DMEM) supplemented with 10% w/w charcoal-dextran treated fetal bovine serum (FBS) and 1% w/w pen-strep, with or without 10 ng/mL doxycycline is herein referred to as Treatment Medium. Following seeding of cells in the plates, the plates were spun at 300×g for 30 seconds, then equilibrated to room temperature for 30 minutes, and then deposited in a humidified tissue culture incubator maintained at 37° C. with 5% CO2.
(§2) At 24 hours after seeding of the cells, dilutions of test compound were prepared in DMSO and dissolved in Treatment Medium, to achieve a final DMSO concentration of 0.5% w/w, thereby providing the Test Compound Solution. A 25 μL aliquot of the Test Compound Solution was added to cells in the well plates. An equal volume of a solution containing DMSO and Treatment Medium was used as a negative control. Following treatment of cells with Test Compound Solution or said equal volume of a solution containing DMSO and Treatment Medium, the plates were spun at 300×g for 30 seconds, and then left in an incubator for 72 hours.
(§3) At the end of the treatment duration, cell viability was quantified with CellTiter-Glo 2.0 reagent (Promega Cat #G9243). For this purpose, plates were equilibrated to room temperature for 30 minutes, and then 25 μL of CellTiter-Glo 2.0 reagent was added to cells in the plate wells. Plates were then agitated on a shaker for two minutes at 500 rpm and subsequently incubated at room temperature for 10 minutes. Following incubation, the plates were spun at 3000×g for 30 seconds, then sealed with an optical adhesive cover, and luminescence readings were measured with an EnVision Plate Reader (Perkin Elmer).
(§4) Data was normalized using zero luminescence for baseline. A four-parameter non-linear regression curve fit was applied to dose-response data in GraphPad Prism data analysis software to determine the half-maximal growth inhibitory concentration (GI50) for each test compound.
A general note: Cellular ATP, detected with luciferase, serves as a proxy for viable cell number.

In assay [3] the test system is T-Rex 293 cell line SC cells lacking increased expression of progesterone receptor isoform B protein. Nature of the assay: Cellular growth inhibition assay, T-Rex 293 SC cells not exposed to doxycycline (no increased progesterone receptor isoform B expression), CellTiter-Glo. Type of assay: cell-based. The note with it: T-Rex 293 SC cells without doxycycline (no increased PR isoform B), 72 hours. As for the experimental part:
as §1, §2, §3, §4

One may read the IC50 as the point on the concentration scale where inhibition reaches its midpoint. Higher therefore signals lower potency. `CC(C)N(CC1CCN(c2ncc(C(=O)N[C@H]3C(C)(C)[C@H](Oc4ccc(C#N)c(Cl)c4)C3(C)C)cn2)CC1)[C@H]1C[C@H](Oc2cccc(Oc3ccc(C(C)(C)O)cc3-c3cn(C)c(=O)c4[nH]ccc34)c2F)C1` [Compound I-214] displayed an IC50 in assay [1] of less than 50 nM.
As a reminder, the GI50 is the concentration at which growth is held to half of that of the control. Higher therefore signals lower sensitivity of the cells. For the compound `CCS(=O)(=O)Nc1ccc(Oc2cccc(COC3CCN(c4ncc(C(=O)N[C@H]5C(C)(C)[C@H](Oc6ccc(C#N)c(Cl)c6)C5(C)C)cn4)CC3)c2)c(-c2cn(C)c(=O)c3[nH]ccc23)c1` [Compound I-18, N-((1r, 3r)-3-(3-chloro-4-cyanophenoxy)-2,2,4,4-tetramethylcyclobutyl)-2-(4-((3-(4-(ethylsulfonamido)-2-(6-methyl-7-oxo-6,7-dihydro-1H-pyrrolo[2,3-c]pyridin-4-yl)phenoxy)benzyl)oxy)piperidin-1-yl)pyrimidine-5-carboxamide], the GI50 in assay [2] and in assay [3] was less than 500 nM throughout.
As to `CCS(=O)(=O)c1ccc(OC(CCCCN2CCN(c3ncc(C(=O)NC4C(C)(C)C(Oc5ccc(C#N)c(Cl)c5)C4(C)C)cn3)CC2)C2CC2)c(-c2cn(C)c(=O)c3[nH]ccc23)c1` (stereo not shown) [Compound I-223, N-[3-(3-chloro-4-cyano-phenoxy)-2,2,4,4-tetramethyl-cyclobutyl]-2-[4-[5-cyclopropyl-5-[4-ethylsulfonyl-2-(6-methyl-7-oxo-1H-pyrrolo[2,3-c]pyridin-4-yl)phenoxy]pentyl]piperazin-1-yl]pyrimidine-5-carboxamide], the IC50 in assay [1] is 50 to 500 nM.
For `Cn1cc(-c2cc(C(C)(C)O)ccc2Oc2cccc(N3CC(N4CCN(c5ncc(C(=O)N[C@H]6C(C)(C)[C@H](Oc7ccc(C#N)c(Cl)c7)C6(C)C)cn5)CC4)C3)c2F)c2cc[nH]c2c1=O` [Compound I-92, N-((1r, 3r)-3-(3-chloro-4-cyanophenoxy)-2,2,4,4-tetramethylcyclobutyl)-2-(4-(1-(2-fluoro-3-(4-(2-hydroxypropan-2-yl)-2-(6-methyl-7-oxo-6,7-dihydro-1H-pyrrolo[2,3-c]pyridin-4-yl)phenoxy)phenyl)azetidin-3-yl)piperazin-1-yl)pyrimidine-5-carboxamide], the GI50 in assay [2] and in assay [3] was less than 500 nM in each case.
As for `Cn1cc(-c2cc(C(C)(C)O)ccc2Oc2cccc(OCCN3CCN(c4ncc(C(=O)N[C@H]5C(C)(C)[C@H](Oc6ccc(C#N)c(Cl)c6)C5(C)C)cn4)CC3)c2F)c2cc[nH]c2c1=O` [Compound I-99], the IC50 in assay [1] is 50 to 500 nM.
`CN(c1ccc(Oc2ccc(C(C)(C)O)cc2-c2cn(C)c(=O)c3[nH]ccc23)cc1)C1CCN(c2ncc(C(=O)N[C@H]3C(C)(C)[C@H](Oc4ccc(C#N)c(Cl)c4)C3(C)C)cn2)CC1` [Compound I-197]: the GI50 in assay [2] and in assay [3] was less than 500 nM in each case.
As to `Cn1cc(-c2cc(C(C)(C)O)ccc2Oc2cccc(N3CC(OC4CCN(c5ncc(C(=O)N[C@H]6C(C)(C)[C@H](Oc7ccc(C#N)c(Cl)c7)C6(C)C)cn5)CC4)C3)c2F)c2cc[nH]c2c1=O` [Compound I-190], the GI50 in assay [2] and in assay [3] was less than 500 nM each time.
Turning to `CCS(=O)(=O)Nc1ccc(Oc2cccc(OCCOCCOCCOC3CCN(c4ncc(C(=O)N[C@H]5C(C)(C)[C@H](Oc6ccc(C#N)c(Cl)c6)C5(C)C)cn4)CC3)c2)c(-c2cn(C)c(=O)c3[nH]ccc23)c1` [Compound I-7], the GI50 in assay [2] and in assay [3] was less than 500 nM in each case.
With `CCS(=O)(=O)Nc1ccc(Oc2cccc(N3CC(OC4CCN(c5ncc(C(=O)N[C@H]6C(C)(C)[C@H](Oc7ccc(C#N)c(Cl)c7)C6(C)C)cn5)CC4)C3)c2)c(-c2cn(C)c(=O)c3[nH]ccc23)c1` [Compound I-80], the IC50 in assay [1] was greater than 2500 nM.
As to `CCS(=O)(=O)Nc1ccc(Oc2cccc(OCCOC3CCN(c4cnc(C(=O)N[C@H]5C(C)(C)[C@H](Oc6ccc(C#N)c(Cl)c6)C5(C)C)cn4)CC3)c2)c(-c2cn(C)c(=O)c3[nH]ccc23)c1` [Compound I-71, N-((1r, 3r)-3-(3-chloro-4-cyanophenoxy)-2,2,4,4-tetramethylcyclobutyl)-5-(4-(2-(3-(4-(ethylsulfonamido)-2-(6-methyl-7-oxo-6,7-dihydro-1H-pyrrolo[2,3-c]pyridin-4-yl)phenoxy)phenoxy)ethoxy)piperidin-1-yl)pyrazine-2-carboxamide], the GI50 in assay [2] and in assay [3] was less than 500 nM in each case.
In the case of `CCS(=O)(=O)Nc1ccc(Oc2cccc(OCCOC3CCN(c4ccc(C(=O)N[C@H]5C(C)(C)[C@H](Oc6ccc(C#N)c(Cl)c6)C5(C)C)cn4)CC3)c2)c(-c2cn(C)c(=O)c3[nH]ccc23)c1` [Compound I-70, N-((1r, 3r)-3-(3-chloro-4-cyanophenoxy)-2,2,4,4-tetramethylcyclobutyl)-6-(4-(2-(3-(4-(ethylsulfonamido)-2-(6-methyl-7-oxo-6,7-dihydro-1H-pyrrolo[2,3-c]pyridin-4-yl)phenoxy)phenoxy)ethoxy)piperidin-1-yl)nicotinamide], the GI50 in assay [2] and in assay [3] was less than 500 nM throughout.
In the case of `CCS(=O)(=O)Nc1ccc(Oc2cccc(OCCOCCOCCOCCOCCN(C)c3ncc(C(=O)N[C@H]4C(C)(C)[C@H](Oc5ccc(C#N)c(Cl)c5)C4(C)C)cn3)c2)c(-c2cn(C)c(=O)c3[nH]ccc23)c1` [Compound I-3], the GI50 in assay [2] was less than 500 nM; in assay [3] it was 500 to 1500 nM.
Regarding `Cn1cc(-c2cc(C(C)(C)O)ccc2Oc2ccc(N3CC4(C3)CN(c3ncc(C(=O)N[C@H]5C(C)(C)[C@H](Oc6ccc(C#N)c(Cl)c6)C5(C)C)cn3)CCO4)cc2)c2cc[nH]c2c1=O` [Compound I-212], the half-maximal inhibitory concentration (IC50) in assay [1] lay in the range of 50 to 500 nM.
Turning to `CCS(=O)(=O)Nc1ccc(Oc2ccc(F)c(OCCOC3CCN(c4ncc(C(=O)N[C@H]5C(C)(C)[C@H](Oc6ccc(C#N)c(Cl)c6)C5(C)C)cn4)CC3)c2F)c(-c2cn(C)c(=O)c3[nH]ccc23)c1` [Compound I-65], the GI50 in assay [2] and in assay [3] was less than 500 nM each time.
Turning to `CCS(=O)(=O)Nc1ccc(Oc2cccc(OCCOC3CCN(c4ncc(C(=O)N[C@H]5C(C)(C)[C@H](Oc6ccc(C#N)c(Cl)c6)C5(C)C)cn4)CC3)c2)c(-c2cn(C)c(=O)c3[nH]ccc23)c1` [Compound I-6], the GI50 in assay [2] and in assay [3] was less than 500 nM throughout.
Consider `Cc1ccc(CCCOC2CCN(c3ncc(C(=O)N[C@H]4C(C)(C)[C@H](Oc5ccc(C#N)c(Cl)c5)C4(C)C)cn3)CC2)c(C)c1Oc1ccc(C(C)(C)O)cc1-c1cn(C)c(=O)c2[nH]ccc12` [Compound I-195], for which the GI50 in assay [2] is less than 500 nM; in assay [3], greater than 3000 nM.
For `Cn1cc(-c2cc(C(C)(C)O)ccc2Oc2cccc(N3CC(CC4CCN(c5ncc(C(=O)N[C@H]6C(C)(C)[C@H](Oc7ccc(C#N)c(Cl)c7)C6(C)C)cn5)CC4)C3)c2F)c2cc[nH]c2c1=O` [Compound I-196] the same measures were less than 500 nM and greater than 3000 nM.
With `CCS(=O)(=O)Nc1ccc(Oc2cccc(OCCN(C)c3ncc(C(=O)N[C@H]4C(C)(C)[C@H](Oc5ccc(C#N)c(Cl)c5)C4(C)C)cn3)c2)c(-c2cn(C)c(=O)c3[nH]ccc23)c1` [Compound I-1, N-((1r, 3r)-3-(3-chloro-4-cyanophenoxy)-2,2,4,4-tetramethylcyclobutyl)-2-((2-(3-(4-(ethylsulfonamido)-2-(6-methyl-7-oxo-6,7-dihydro-1H-pyrrolo[2,3-c]pyridin-4-yl)phenoxy)phenoxy)ethyl)(methyl)amino)pyrimidine-5-carboxamide], the GI50 in assay [2] and in assay [3] was less than 500 nM each time.
